What was measured:
[1] = tested on: T1, β-D-glucosidase subunit of free naringinase from A. niger KMS; experiment: p-nitrophenol release at […] nm, initial rates, Lineweaver-Burk; type: biochemical, Aspergillus niger; details: free enzyme (crude naringinase preparation), 0.1 M buffer pH 4.0, 50 °C, substrate 0.4-1.5 mM
T1 construct: gene beta-D-glucosidase; native secreted enzyme in a crude naringinase preparation (culture fluid ultrafiltered, acetone precipitated)

[2] = tested on: T2, α-L-rhamnosidase subunit of free naringinase from A. niger KMS; experiment: as above; type: biochemical, Aspergillus niger; details: free enzyme (crude naringinase preparation), 0.1 M buffer pH 4.0, 50 °C, substrate 0.4-1.5 mM
T2 construct: gene alpha-L-rhamnosidase; native secreted enzyme in a crude naringinase preparation (culture fluid ultrafiltered, acetone precipitated)

Row | Structure (SMILES) | Km [1] [µM] | Km [2] [µM]
1 | O=[N+]([O-])c1ccc(O[C@@H]2O[C@H](CO)[C@@H](O)[C@H](O)[C@H]2O)cc1 [pNPG, 4-nitrophenyl β-D-glucopyranoside] | 2720 ± 78 | 
2 | C[C@@H]1O[C@@H](Oc2ccc([N+](=O)[O-])cc2)[C@H](O)[C@H](O)[C@H]1O [pNPR, 4-nitrophenyl α-L-rhamnopyranoside] |  | 2080 ± 35.5

Reference: PMC12524486, “Characterization of α-L-Rhamnosidase and β-D-Glucosidase Subunits of Naringinase Immobilized on a Magnetic Polysaccharide Carrier” (International Journal of Molecular Sciences, 2025)
